Test [1] deals with T1, 11β-HSD1 (Homo sapiens (Human), UniProt P28845). The conditions noted are these: Biological Test 3, human liver microsomes, HTRF.
Experimental: Briefly, compounds were incubated for 1 hour at 37° C. in Tris buffer (20 mM tris, 5 mM EDTA, pH 6.0) containing NADPH (200 μM) and cortisone (80 nM). Cortisol generated in the reaction is then detected with a competitive immunoassay, involving two HTRF conjugates: cortisol linked to XL665 and anti-cortisol antibody labeled with Europium cryptate. The incubation period for detection reaction was typically 2 hours. […] The ratio of the two emission signals was then calculated (Em665*10000/Em615). […] Each assay also contained a calibration curve with cortisol to transform the fluorescent data into cortisol concentrations. Percent inhibition of each compound was determined relative to the carbenoxolone signal.
Test [2] deals with T1, 11β-HSD1. The settings on record: comparator compounds; IC50 in Biological Test Example 4 divided by IC50 in Biological Test Example 1.
Experimental: The assay began by dispensing 49 μl of microsome solution into 96-well polypropylene plates and adding 1 μl of the test compounds in DMSO, previously diluted in half-log increments (8 points) starting at 1.0 mM. […] The plates were incubated for 120 minutes at rt, and the reaction was quenched with the addition of 100 μl acetonitrile with 20 mM cortisone and 20 mM cortisol. After a ten minute incubation at rt, 100 μl of each well was filtered through a MultiScreen HTS, HV filter plate (Millipore) and diluted with 100 μl of reaction buffer without human plasma.

T1 sequence (P28845 whole entry): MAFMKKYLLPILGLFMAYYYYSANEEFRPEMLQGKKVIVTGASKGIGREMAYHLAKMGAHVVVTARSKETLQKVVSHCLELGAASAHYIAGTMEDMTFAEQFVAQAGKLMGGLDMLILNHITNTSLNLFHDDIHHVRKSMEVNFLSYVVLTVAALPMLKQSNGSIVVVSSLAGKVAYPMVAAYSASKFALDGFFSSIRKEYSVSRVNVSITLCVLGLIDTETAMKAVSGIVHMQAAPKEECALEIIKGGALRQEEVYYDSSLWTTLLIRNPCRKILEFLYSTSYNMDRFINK

For `Cc1nc2cc(-c3ccc([C@H](C)N4CC[C@](CC(C)(C)O)(c5ccccc5)OC4=O)cc3)ccn2n1` [Example 7, (S)-6-(2-Hydroxy-2-methyl-propyl)-3-{(5)-1-[4-(2-methyl-[1,2,4]triazolopyridin-7-yl)-phenyl]-ethyl}-6-phenyl-[1,3]oxazinan-2-one], the IC50 in test [1] turned out to be 31 nM. In test [2], the Shift turned out to be 42.43.

For the compound `COc1nc2ccc(-c3ccc([C@H](C)N4CC[C@](CC(C)(C)O)(c5ccccc5)OC4=O)cc3)cn2n1` [Example 9, (S)-6-(2-Hydroxy-2-methyl-propyl)-3-{(S)-1-[4-(2-methoxy-[1,2,4]triazolo[1,5-a]pyridin-6-yl)-phenyl]-ethyl}-6-phenyl-[1,3]oxazinan-2-one], the IC50 in test [1] came to 54 nM. In test [2], the Shift was found to be 21.45.

Source of the values: patent US8598163B2, “Derivatives of [1,3]Oxazin-2-one useful for the treatment of metabolic diseases such as lipid disorders” (Vitae Pharmaceuticals, Inc., priority 2009, dated 2013).
